Target: T1, mu opiate receptor (MOR) (Rattus norvegicus, UniProt P33535)
T1 construct: from tissue; host or cells: striatum (membrane preparation)
Assay type: biochemical
Conditions: for Concentration of FLNA-Binding Compound as Agonist 0.1 μM / Concentration of FLNA-Binding Compound as Agonist 1 μM / Concentration of FLNA-Binding Compound as Agonist 1 μM + BFNA: [35S]GTPγS binding to Gαo in striatal membranes; for Concentration of FLNA-Binding Compound as Agonist 0.1 μM: compound 0.1 μM; for Concentration of FLNA-Binding Compound as Agonist 1 μM: compound 1 μM; for Concentration of FLNA-Binding Compound as Agonist 1 μM + BFNA: compound 1 μM plus 1 μM β-funaltrexamine (MOR antagonist)
Protocol: To assess the mu opiate receptor (MOR) agonist activity of positive compounds from the FLNA screening, compounds were tested in a [^35S]GTPγS binding assay using striatal membranes. […] This assay measures a functional consequence of receptor occupancy at one of the earliest receptor-mediated events. The assay permits for traditional pharmacological parameters of potency, efficacy and antagonist affinity, with the advantage that agonist measures are not subjected to amplification or other modulation that may occur when analyzing parameters further downstream of the receptor.
Thus, striatal tissue was homogenized in 10 volumes of ice cold 25 mM HEPES buffer, pH 7.4, which contained 1 mM EGTA, 100 mM sucrose, 50 μg/ml leupeptin, 0.04 mM PMSF, 2 μg/ml soybean trypsin inhibitor and 0.2% 2-mercaptoethanol. The homogenates were centrifuged at 800×g for 5 minutes and the supernatants were centrifuged at 49,000×g for 20 minutes.
The resultant striatal membrane preparation (200 μg) was admixed and maintained (incubated) at 30° C. for 5 minutes in reaction buffer as above that additionally contained 1 mM MgCl2 and 0.5 nM [^35S]GTPγS (0.1 μCi/assay, PerkinElmer Life and Analytical Sciences) in a total volume of 250 μl and continued for 5 minutes in the absence or presence of 0.1-10 μM of an assayed compound of interest. The reaction was terminated by dilution with 750 μl of ice-cold reaction buffer that contained 20 mM MgCl2 and 1 mM EGTA and immediate centrifugation at 16,000×g for 5 minutes.
Normal rabbit serum (1 μl) was added to 1 ml of lysate and incubated at 25° C. for 30 minutes. Nonspecific immune complexes were removed by incubation with 25 μl of protein A/G-conjugated agarose beads at 25° C. for 30 minutes followed by centrifugation at 5,000×g at 4° C. for 5 minutes. The supernatant was divided and separately incubated at 25° C. for 30 minutes with antibodies raised against Gαo proteins (1:1,000 dilutions).
The immunocomplexes so formed were collected by incubation at 25° C. for 30 minutes with 40 μl of agarose-conjugated protein A/G beads and centrifugation at 5,000×g at 4° C. for 5 minutes. The pellet was washed and suspended in buffer containing 50 mM Tris-HCl, pH 8.0, and 1% NP-40. The radioactivity in the suspension was determined by liquid scintillation spectrometry.

T1 sequence (P33535 whole entry): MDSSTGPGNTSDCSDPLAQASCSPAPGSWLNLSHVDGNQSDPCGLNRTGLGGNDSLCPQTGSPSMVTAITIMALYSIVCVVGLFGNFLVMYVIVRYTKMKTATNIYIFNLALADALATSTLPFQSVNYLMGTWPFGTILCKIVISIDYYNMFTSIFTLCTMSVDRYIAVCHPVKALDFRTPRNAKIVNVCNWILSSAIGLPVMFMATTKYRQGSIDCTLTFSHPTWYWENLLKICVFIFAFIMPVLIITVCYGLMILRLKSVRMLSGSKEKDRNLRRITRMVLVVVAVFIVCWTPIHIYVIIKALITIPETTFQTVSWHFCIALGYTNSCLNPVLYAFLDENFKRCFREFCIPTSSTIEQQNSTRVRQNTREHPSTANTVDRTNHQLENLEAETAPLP

Row | SMILES | % DAMGO (0.1 μM) | % DAMGO (1 μM) | % DAMGO + BFNA | Concentration of FLNA-Binding Compound as Agonist 0.1 μM | Concentration of FLNA-Binding Compound as Agonist 1 μM | Concentration of FLNA-Binding Compound as Agonist 1 μM + BFNA
1 | CC1CCCC(OCC(O)CN2CC(C)OC(C)C2)C1 (stereo not drawn) [Compound A0021] | 79.8% | 112.4% | 34.9% | 133.3% | 275.3% | 12.1%
2 | CC1CCC(C)C(OCC(O)CN2CC(C)OC(C)C2)C1 (stereo not drawn) [Compound A0022] | 90.0% | 80.9% | 53.7% | 154.1% | 216.0% | 28.0%
3 | CC1CN(CC(O)COc2ccccc2)CC(C)O1 (stereo not drawn) [Compound A0025] | 33.2% | 54.5% | 198.5% | 58.6% | 138.7% | 52.2%
4 | CC1CCC(C(C)C)C(OCC(O)CN2CCN(CCCN3CCOCC3)CC2)C1 (stereo not drawn) [Compound A0026] | 79.7% | 70.7% | 459.3% | 140.7% | 179.8% | 120.8%
5 | Cc1ccc(C(C)C)c(OCC(O)CN2CC(C)OC(C)C2)c1 (stereo not drawn) [Compound A0028] | 81.3% | 73.8% | 443.7% | 143.6% | 187.7% | 116.7%
6 | CC1CN(CC(O)COc2ccccc2C(C)C)CC(C)O1 (stereo not drawn) [Compound A0029] | 98.4% | 81.2% | 84.8% | 173.8% | 206.5% | 22.3%
7 | Cc1cccc(OCC(O)CN2CC(C)OC(C)C2)c1 (stereo not drawn) [Compound A0030] | 75.5% | 113.2% | 628.1% | 133.4% | 287.8% | 165.2%
8 | CC1CCC(C(C)C)C(OCC(O)CN2CCN(CCN3CCCCC3)CC2)C1 (stereo not drawn) [Compound A0031] | 100.9% | 116.8% | 573.8% | 178.2% | 297.0% | 150.9%
9 | CC1CCC(C(C)C)C(OCC(O)CN2CC(C)OC(C)C2)C1 (stereo not drawn) [Compound A0032-1] | 95.5% | 117.6% | 303.8% | 187.4% | 324.5% | 224.5%
10 | CCN(CC)CC(O)COC1CC(C)CCC1C(C)C (stereo not drawn) [Compound A0032] | 115.6% | 93.4% | 180.0% | 226.9% | 257.8% | 133.0%
11 | CC1CCC(C(C)C)C(OCC(CN2CC(C)OC(C)C2)NCc2ccccc2)C1 (stereo not drawn) [Compound A0033] | 79.4% | 92.2% | 159.9% | 155.8% | 254.6% | 118.2%
12 | CC1CCC(C(C)C)C(OCC(O)CN2CCCC2=O)C1 (stereo not drawn) [Compound A0035] | 61.5% | 57.5% | 119.9% | 120.6% | 158.8% | 88.6%
